Data published in article PMC11152041, “Tricarbonyl rhenium(I) complexes with 8-hydroxyquinolines: structural, chemical, antibacterial, and anticancer characteristics” (RSC Advances, 2024).
Values after ≈ are worked out from the molar mass of the structure shown. Where two headings read alike, the source gives them in different places.

How the values were obtained:
E. coli ATCC25922 = assay: Broth microdilution MIC/MBC (ISO 20776-1); assay type: cell-based, Escherichia coli
Method: (§1) Bacterial strains and cell lines were obtained from the American Type Culture Collection (ATCC).[59] […] Antimicrobial activity was tested in Müeller Hinton (MH) II broth (Becton Dickinson). For anticancer activity assay, the following reagents from Merk were used: 3-(4,5-dimethylthiazol-2-yl)-2,5-diphenyltetrazolium bromide (MTT), sodium dodecyl sulfate (SDS) and HCl. The solubilized formazan product was spectrophotometrically quantified in a Power Wave XS (Bio Tek, Winooski, VT, USA) microplate reader. The HL-60 and PC-3 cells were grown in RPMI-1640 medium with stable glutamine (Biowest) supplemented with 10% (v/v) of heat-inactivated fetal bovine serum (FBS, Biowest) and 1% (v/v) of antibiotic–antimycotic solution (Biowest). The SKOV-3 cells were grown in McCoy's 5A medium with L-glutamine (Biowest) supplemented with 10% (v/v) heat-inactivated FBS, and 1% (v/v) antibiotic–antimycotic solution. The MCF-7 cells were grown in Eagle's MEM (Minimal Essential Medium) medium with stable glutamine (Biowest), supplemented with 10% (v/v) heat-inactivated FBS 1% (v/v) MEM non-essential amino acids (Biowest), 1% (v/v) antibiotic–antimycotic solution, and 1 mM sodium pyruvate (Merck). The MCF-10A cells were grown in Ham's F-12K (Kaighn's) Medium with stable glutamine (Gibco) supplemented with 5% (v/v) heat-inactivated FBS, 1% (v/v) MEM non-essential amino acids, 1% (v/v) antibiotic–antimycotic solution, 5 μg mL^−1 insulin, 0.04 μg mL^−1 hydrocortisone (Merck), and 15 ng mL^−1 human Epidermal Growth Factor (hEGF, PeproTech).
(§2) The in vitro antibacterial activity was determined according to ISO 20776-1.[88] Among the tested microorganisms were Gram-negative rods, E. coli ATCC25922 and P. aeruginosa ATCC27853, and Gram-positive cocci, S. aureus ATCC29213 and E. faecalis ATCC29212. The selected bacterial species represented the most common etiologic agents of human infections and are used for quality control of antimicrobial susceptibility testing.[89] The test procedure included the determination of MICs and MBCs of complexes and their free ligands. MIC and MBC determinations of ciprofloxacin, as the reference antibiotic, were also performed. All compounds were dissolved in DMSO to reach the maximum 512 mg L^−1 concentration. […] The assay consisted of preparing 2-fold dilutions of the substances in a liquid growth medium MH II and inoculating them with a standardized suspension of microorganisms at a McFarland density of 0.5 (≈10^8 CFU mL^−1). The culture plates were incubated at 35 °C for 24 h. The lowest concentration of the compound inhibiting visible bacterial growth was specified as MIC, and the concentration that reduced bacterial growth by >99.99% after counting live bacteria on the plates compared to the positive control was defined as MBC.

P. aeruginosa ATCC27853 = assay: Broth microdilution MIC/MBC (ISO 20776-1); assay type: cell-based, Pseudomonas aeruginosa
Method: as §1, §2

S. aureus ATCC29213 = assay: Broth microdilution MIC/MBC (ISO 20776-1); assay type: cell-based, Staphylococcus aureus
Method: as §1, §2

E. faecalis ATCC29212 = assay: Broth microdilution MIC/MBC (ISO 20776-1); assay type: cell-based, Enterococcus faecalis
Method: as §1, §2

HL-60 cells = assay: MTT cytotoxicity assay; assay type: cell-based, human; conditions: read-out: IC50 ± SD
Method: (§3) The cytotoxicities for studied compounds were evaluated against leukemia cells (HL-60), as well as ovarian (SKOV-3), prostate (PC-3), and breast (MCF-7) cancer cell lines. The potential selectivity of these compounds towards cancer cells was assessed by determination of their cytotoxicities towards breast non-cancerous cells (MCF-10A). For comparison, cisplatin was added to the cytotoxicity assays.
as §1
(§4) The cells were cultured in 96-well plates and incubated with the tested compound for 24 h and 48 h. All experiments were performed in exponentially growing cultures. The 0.03 M solutions of the compounds in DMSO were appropriately diluted using culture media. The maximal final concentration of DMSO in each well was 0.1%. The cytotoxicity of the compounds was measured by determining cell viability with a colorimetric test based on 3-(4,5-dimethylthiazol-2-yl)-2,5-diphenyltetrazolium bromide (MTT). MTT stock solution was added to each well to a final concentration of 0.5 mg mL^−1 and incubated for 4 h at 37 °C; following formazan crystals were dissolved by the addition of sodium dodecyl sulfate (SDS) solution (10% SDS in 0.001 M HCl). MTT and SDS were added directly to the cell culture. The compound's IC50 values (concentration required to reduce the viability of cells by 50% compared with the control cells) were calculated from the data obtained with the MTT assay.

MCF-7 cells = assay: MTT cytotoxicity assay; assay type: cell-based, human; conditions: read-out: IC50 ± SD
Method: as §3, §1, §4

PC-3 cells = assay: MTT cytotoxicity assay; assay type: cell-based, human; conditions: read-out: IC50 ± SD
Method: as §3, §1, §4

SKOV-3 cells = assay: MTT cytotoxicity assay; assay type: cell-based, human; conditions: read-out: IC50 ± SD
Method: as §3, §1, §4

MCF-10A cells = assay: MTT cytotoxicity assay
Method: as §3, §1, §4

[1] = tested on: solid tumor cells (SKOV-3, PC-3, MCF-7); assay: MTT cytotoxicity assay, solid tumor cell lines taken together; assay type: cell-based; conditions: Homo sapiens, read-out: IC50 against solid tumor cells
Method: For comparison, cisplatin was added to the cytotoxicity assays.
All experiments were performed in exponentially growing cultures.

[2] = tested on: human cervical adenocarcinoma (HeLa) cells; conditions: cited from earlier work
[3] = Stability of the complexes in DMSO by NMR (exchange of pyrazole ligand with DMSO); assay type: physicochemical
Method: In 3, after two days, an equilibrium between the Hdmpz and DMSO complexes stabilizes at 77% to 23% ratio (Fig. S34 ^†). Complex 3 can be recovered from the mixture by DMSO evaporation and the complex with water is even weaker. In the case of 3-phenylpyrazole in 8, the complex amount drops to 50% immediately after dissolving and after 24 h reaches ratio of 39% to 61% (Fig. S35 ^†).
The chemicals were purchased from Sigma-Aldrich and only 5-chloro-8-hydroxyquinoline from TCI. Their purity was 98 or 99% (for 3-phenylpyrazole – 97%). Anhydrous solvents with HPLC grade (≥99.9%) were applied. All chemicals were used without further purification. Elemental analysis was performed on an Elementar Vario EL III analyzer. UV-Vis spectra of methanol solutions were recorded in the 200–900 nm range with a Jasco V-750 spectrometer. Infrared absorption spectra in the 400–4000 cm^−1 range were recorded with a Thermo Scientific Nicolet iS10 FT-IR spectrometer using KBr pellets. ^1H and ^13C NMR spectra of DMSO-d6 or CDCl3 solutions were recorded at 25 °C on a Varian VNMRS-500 or Varian 400MR spectrometer operated at 499.8 and 400 MHz, respectively. The NMR spectra were referenced to the internal reference of tetramethylsilane (TMS).

[4] = E. coli ATCC25922, >99.99% reduction of growth
[5] = E. coli ATCC25922, MH II broth, 35 °C, 24 h
[6] = P. aeruginosa ATCC27853, >99.99% reduction of growth
[7] = P. aeruginosa ATCC27853, MH II broth, 35 °C, 24 h
[8] = S. aureus ATCC29213, >99.99% reduction of growth
[9] = S. aureus ATCC29213, MH II broth, 35 °C, 24 h
[10] = E. faecalis ATCC29212, >99.99% reduction of growth
[11] = E. faecalis ATCC29212, MH II broth, 35 °C, 24 h
[12] = read-out: IC50 ± SD, MCF-10A (non-cancerous), 24 h, MTT, * precipitation of the complex
[13] = read-out: IC50 ± SD, MCF-10A (non-cancerous), 48 h, MTT, * precipitation of the complex

Row | Structure (SMILES) | MBC (E. coli ATCC25922; [4]) | MIC (E. coli ATCC25922; [5]) | MBC (P. aeruginosa ATCC27853; [6]) | MIC (P. aeruginosa ATCC27853; [7]) | MBC (S. aureus ATCC29213; [8]) | MIC (S. aureus ATCC29213; [9]) | MBC (E. faecalis ATCC29212; [10]) [µg/mL] | MIC (E. faecalis ATCC29212; [11]) [µg/mL] | IC50 (HL-60 cells; HL-60, 24 h, MTT) [µM] | IC50 (HL-60 cells; HL-60, 48 h, MTT) [µM] | IC50 (MCF-7 cells; MCF-7, 24 h, MTT) [µM] | IC50 (MCF-7 cells; MCF-7, 48 h, MTT) [µM] | IC50 (PC-3 cells; PC-3, 24 h, MTT) [µM] | IC50 (PC-3 cells; PC-3, 48 h, MTT) [µM] | IC50 (SKOV-3 cells; SKOV-3, 24 h, MTT) [µM] | IC50 (SKOV-3 cells; SKOV-3, 48 h, MTT) [µM] | IC50 (MCF-10A cells; [12]) [µM] | IC50 (MCF-10A cells; [13]) [µM] | also measured
1 | Cc1ccc2cccc(O)c2n1 [MeHQ, 2-methyl-8-hydroxyquinoline, reference compound] | – | – | – | – | – | – | – | – | – | – | – | – | – | – | – | – | – | – | MBC (E. coli ATCC25922; Escherichia coli, ATCC25922): > 512 µg/mL; MIC (E. coli ATCC25922; Escherichia coli, ATCC25922, 24 h): 32 µg/mL (≈ 201 µM); MBC (P. aeruginosa ATCC27853; Pseudomonas aeruginosa, ATCC27853): > 512 µg/mL; MIC (P. aeruginosa ATCC27853; Pseudomonas aeruginosa, ATCC27853, 24 h): 256 µg/mL (≈ 1610 µM); MBC (S. aureus ATCC29213; Staphylococcus aureus, ATCC29213): 128 µg/mL (≈ 804 µM); MIC (S. aureus ATCC29213; Staphylococcus aureus, ATCC29213, 24 h): 32 µg/mL (≈ 201 µM); MBC (E. faecalis ATCC29212; Enterococcus faecalis, ATCC29212): 32 µg/mL (≈ 201 µM); MIC (E. faecalis ATCC29212; Enterococcus faecalis, ATCC29212, 24 h): 32 µg/mL (≈ 201 µM); IC50 (HL-60 cells; Homo sapiens, HL-60, 24 h): 27 ± 2 µM; IC50 (HL-60 cells; Homo sapiens, HL-60, 48 h): 18 ± 2 µM; IC50 (MCF-7 cells; Homo sapiens, MCF7, 24 h): > 100 µM; IC50 (MCF-7 cells; Homo sapiens, MCF7, 48 h): > 100 µM; IC50 (PC-3 cells; Homo sapiens, PC-3, 24 h): 62 ± 8 µM; IC50 (PC-3 cells; Homo sapiens, PC-3, 48 h): > 100 µM; IC50 (SKOV-3 cells; Homo sapiens, SK-OV-3, 24 h): > 100 µM; IC50 (SKOV-3 cells; Homo sapiens, SK-OV-3, 48 h): > 100 µM; IC50 (MCF-10A cells; Homo sapiens, MCF-10A, 24 h, read-out: IC50 ± SD): > 100 µM; IC50 (MCF-10A cells; Homo sapiens, MCF-10A, 48 h, read-out: IC50 ± SD): > 100 µM; IC50 [1]: > 100 µM
2 | C1N2CN3CN1CP(C2)C3.[C-]#[O+].[C-]#[O+].[C-]#[O+].[Re][O]c1cccc2cccnc12 [[Re(CO)3(Q)(PTA)]] | – | – | – | – | – | – | – | – | – | – | – | – | – | – | – | – | – | – | cytotoxicity [2]: moderate activity
3 | Cc1cc(C)[nH]n1.[C-]#[O+].[C-]#[O+].[C-]#[O+].[Re][O]c1cccc2cccnc12 [complex 3, [Re(CO)3(Q)Hdmpz]] | >512/>512 mg L^−1 | >512/>512 mg L^−1 | >512/>512 mg L^−1 | >512/>512 mg L^−1 | 512/>512 mg L^−1 | 512/>512 mg L^−1 | 512 | 128 | 7 ± 2 | 6 ± 1 | 19 ± 2 | 29 ± 5 | 14 ± 2 | 16 ± 2 | 32 ± 7 | 31 ± 7 | > 100 | > 100 | IC50 / activity on normal cells (MCF-10A cells; MCF-10A, incubation time not given): no activity; IC50 (MCF-10A cells; read-out: IC50 / activity on normal cells, MCF-10A, incubation time not given): > 100 µM; share of the DMSO complex at equilibrium ([3]; after two days): 23%; share of the Hdmpz complex at equilibrium with the DMSO complex ([3]; after two days): 77%
4 | Cc1ccc2cccc([O][Re])c2n1.[C-]#[O+].[C-]#[O+].[C-]#[O+].c1ccc(-c2ccn[nH]2)cc1 [complex 8, [Re(CO)3(MeQ)HPhpz]] | >512/>512 mg L^−1 | >512/>512 mg L^−1 | >512/>512 mg L^−1 | >512/>512 mg L^−1 | > 512 µg/mL | 128 µg/mL | > 512 | 32 | 9 ± 1 | 8 ± 1 | 68 ± 4 | 53 ± 3 | 39 ± 5 | 31 ± 5 | > 100 | 41 ± 7 | 36 ± 1 | 21 ± 4 | share of the DMSO complex ([3]; after 24 h): 61%; share of the HPhpz complex ([3]; after 24 h): 39%; complex amount ([3]; immediately after dissolving): 50%
